The record followed here is patent US11098102B2, “Insulin conjugates” (SANOFI, priority 2018, dated 2021).

The structures appear in SMILES notation.

Chain of insulin receptor isoform B (IR-B) (P06213 28-758 limits assumed): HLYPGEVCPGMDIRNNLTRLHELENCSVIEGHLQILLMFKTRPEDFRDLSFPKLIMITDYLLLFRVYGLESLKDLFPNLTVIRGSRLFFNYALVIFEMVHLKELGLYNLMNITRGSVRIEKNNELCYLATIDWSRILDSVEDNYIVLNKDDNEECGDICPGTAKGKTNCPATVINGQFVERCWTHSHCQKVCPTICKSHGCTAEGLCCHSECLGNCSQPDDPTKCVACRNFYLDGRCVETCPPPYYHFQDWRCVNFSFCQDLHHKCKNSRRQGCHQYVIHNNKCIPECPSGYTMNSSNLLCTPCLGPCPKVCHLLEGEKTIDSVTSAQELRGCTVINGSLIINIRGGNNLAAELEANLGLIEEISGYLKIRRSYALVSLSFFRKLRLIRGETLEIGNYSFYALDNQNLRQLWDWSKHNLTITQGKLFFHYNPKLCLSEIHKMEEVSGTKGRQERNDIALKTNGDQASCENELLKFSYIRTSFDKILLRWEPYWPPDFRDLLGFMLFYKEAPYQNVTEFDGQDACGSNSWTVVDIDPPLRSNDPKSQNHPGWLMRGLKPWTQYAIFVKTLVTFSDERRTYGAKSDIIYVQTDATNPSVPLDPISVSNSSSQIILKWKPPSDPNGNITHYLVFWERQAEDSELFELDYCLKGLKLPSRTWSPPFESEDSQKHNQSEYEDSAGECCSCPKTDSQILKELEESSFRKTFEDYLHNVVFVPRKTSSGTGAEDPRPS
Chain of insulin receptor isoform B (IR-B) (P06213 763-1382 limits assumed): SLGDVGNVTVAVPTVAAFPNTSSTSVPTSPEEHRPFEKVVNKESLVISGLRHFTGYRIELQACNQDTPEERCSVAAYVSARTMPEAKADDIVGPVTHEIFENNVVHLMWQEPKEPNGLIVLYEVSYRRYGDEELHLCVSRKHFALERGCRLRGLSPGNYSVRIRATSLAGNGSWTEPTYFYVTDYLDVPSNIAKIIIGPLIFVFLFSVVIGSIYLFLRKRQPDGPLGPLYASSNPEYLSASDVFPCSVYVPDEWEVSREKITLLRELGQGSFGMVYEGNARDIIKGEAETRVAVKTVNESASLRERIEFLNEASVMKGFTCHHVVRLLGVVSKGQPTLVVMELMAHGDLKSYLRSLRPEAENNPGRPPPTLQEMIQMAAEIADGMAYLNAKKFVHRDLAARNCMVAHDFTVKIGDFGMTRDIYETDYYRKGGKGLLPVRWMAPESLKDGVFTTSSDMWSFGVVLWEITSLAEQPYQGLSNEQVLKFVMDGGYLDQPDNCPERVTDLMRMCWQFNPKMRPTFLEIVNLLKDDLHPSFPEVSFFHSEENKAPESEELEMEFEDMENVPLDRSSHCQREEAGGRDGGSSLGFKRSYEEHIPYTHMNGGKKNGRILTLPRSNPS

In one assay the target is T1, immobilized human serum albumin (Homo sapiens, UniProt P02768).
T1 construct: purchased Chiralpak (Chiraltech) 34712
T1 sequence (P02768 25-609): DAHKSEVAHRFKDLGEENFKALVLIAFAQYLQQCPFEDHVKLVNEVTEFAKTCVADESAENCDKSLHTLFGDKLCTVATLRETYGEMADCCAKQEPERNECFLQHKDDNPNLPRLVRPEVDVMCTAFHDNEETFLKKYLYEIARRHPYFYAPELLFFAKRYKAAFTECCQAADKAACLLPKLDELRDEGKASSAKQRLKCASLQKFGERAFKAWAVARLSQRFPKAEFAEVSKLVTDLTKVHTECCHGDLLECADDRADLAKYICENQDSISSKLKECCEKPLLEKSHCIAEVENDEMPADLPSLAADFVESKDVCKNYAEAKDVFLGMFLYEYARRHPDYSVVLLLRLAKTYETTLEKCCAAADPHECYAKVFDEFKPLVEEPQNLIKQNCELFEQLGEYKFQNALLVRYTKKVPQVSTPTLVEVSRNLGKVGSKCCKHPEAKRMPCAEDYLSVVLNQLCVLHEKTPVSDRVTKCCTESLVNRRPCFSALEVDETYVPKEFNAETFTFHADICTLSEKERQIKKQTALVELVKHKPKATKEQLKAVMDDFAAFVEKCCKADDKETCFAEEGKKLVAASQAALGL
Nature of the assay: Albumin binding: affinity chromatography on columns with immobilized human serum albumin (net retention time). The conditions noted are these: isolated binders; HSA column 25° C., PBS pH 7.4/isopropanol gradient. Here is the method: In order to identify suitable binder molecules, which when bound to a peptide, such as an insulin, are able to improve the half-life in plasma and to prolong the profile of action, a system was established based on affinity chromatography with serum albumin columns, i.e. columns with immobilized serum albumin.
The net retention time of the binders (samples) was calculated according to the following formula: Net retention time=RetTimeSample−RetTimet0 marker
• Instrument: Waters Alliance 2795/Waters PDA 2996 or Waters H-Class UPLC equipped with a Waters Acquity photodiode-array detector • Software: Waters Empower 3 • Column: […]® HSA 50×4 mm; 5 μm Particle size • Chiraltech Order Numbers: HSA: 34712 • Eluent A: Phosphate Buffer saline (PBS) at pH=7.4 • Gibco PBS pH7.4 (10×) Phosphate Buffered Saline 500 ml; • Order Number: 70011-036 (500 ml) • Eluent B: Isopropanol • Fisher Order Number: A461-1 (10 • Gradient:
• Column temperature: 25° C. • Flow rate: 1.0 ml/min • Detection: λ=220 nm • Injection volume: 20 μL • Sample Conc.: 1 mg/ml insulin solution in PBS for insulin samples • 5 μL of 10 mM DMSO stock solution (DMSO evaporated and re-dissolved in 200 μL i-propanol/water 1:1 v/v) for isolated binder samples (250 μM, 0.2 mg/ml at 800 Da MolWeight) • t0 marker Sodium Nitrate (NaNO3) solution in water, 0.05 mg/ml • Diluted from aqueous 1 mg/ml stock solution (Fluka Order Number: 74246-100ML) • Reported Value Net retention time of sample: RetTime Sample−RetTime t0 marker
Affinity chromatography was carried out i) for insulin conjugates according to Examples 3.3 and 3.4 on a Waters Alliance Separation Module 2695 equipped with a Waters photodiode-array detector 2996 or Waters H-Class UPLC equipped with a Waters Acquity photodiode-array detector and ii) for isolated binders according to Example 2.11 on a Waters Alliance Separation Module 2795 equipped with a Waters photodiode-array detector 2996 or Waters H-Class UPLC equipped with a Waters Acquity photodiode-array detector.
Columns with immobilized human serum albumin (50×4 mm; 5 μm particle size) were purchased from Chiralpak and used for separations.
The columns with immobilized serum albumin were kept at 25° C. during the LC run, UV detection was carried out at 220 nm and injection volume was 20 μL.
The net retention time of the samples was reported according to Net retention time=RetTime Sample−RetTime t0 marker
Turning to `O=C(O)CCCCCCCCCCCCCc1ccc(OCc2ccc(S(=O)(=O)Nc3ccc(C(=O)NCCOCCOCC(=O)NCCOCCOCC(=O)O)cn3)cc2)cc1` [Binder 44], the “NRT [min] (net retention time on columns with immobilized human serum albumin)” value (“NRT [min]” below) is 15.04 min. The same measure, in the same setting: for `O=C(O)CCCCCCCCCCCCCCCCCc1cccc(S(=O)(=O)Nc2ncc(C(=O)NCCOCCOCC(=O)NCCOCCOCC(=O)O)cn2)c1` [Binder 55] the value was 15.01 min; for `O=C(O)CCCCCCCCCCCc1ccc(S(=O)(=O)Nc2ncc(C(=O)NCCOCCOCC(=O)NCCOCCOCC(=O)O)cn2)cc1` [Binder 53], 12.29 min. For the compound `O=C(O)CCCCCCCCCCCCCCCCCOc1ccc(S(=O)(=O)Nc2ccc(C(=O)NCCOCCOCC(=O)NCCOCCOCC(=O)O)cn2)cc1` [Binder 70], the “NRT [min]” value amounted to 14.26 min. Same read-out and setting: to `O=C(O)CCCCCCCCCCCCCc1cccc(S(=O)(=O)Nc2ncc(C(=O)NCCOCCOCC(=O)NCCOCCOCC(=O)O)cn2)c1` [Binder 29] belongs 15.66 min; to `Cc1nc(NS(=O)(=O)c2ccc(OCCCCCCCCCCCCCCCC(=O)O)cc2)ncc1C(=O)NCCOCCOCC(=O)NCCOCCOCC(=O)O` [Binder 47], 13.73 min; to `O=C(O)CCCCCCCCCCCCCCCOc1cccc(S(=O)(=O)Nc2ncc(C(=O)NCCOCCOCC(=O)NCCOCCOCC(=O)O)cn2)c1` [Binder 68], 14.74 min. Consider `O=C(O)CCCCCCCCCCCCCc1cc(Oc2ccc(S(=O)(=O)Nc3ncc(C(=O)NCCOCCOCC(=O)NCCOCCOCC(=O)O)cn3)cc2)ccc1F` [Binder 8], for which the “NRT [min]” value is recorded as 15.29 min. For `O=C(O)CCCCCCCCCc1ccc(S(=O)(=O)Nc2ncc(C(=O)NCCOCCOCC(=O)NCCOCCOCC(=O)O)cn2)cc1` [Binder 66], the “NRT [min]” value is recorded as 9.87 min. With `O=C(O)CCCCCCCCCCCc1cccc(S(=O)(=O)Nc2ccc(C(=O)NCCOCCOCC(=O)NCCOCCOCC(=O)O)cn2)c1` [Binder 65], the “NRT [min]” value was determined as 12.21 min.

Take `O=C(O)CCCCCCCCCCCCCCCCCc1cccc(S(=O)(=O)Nc2ncc(C(=O)NCCOCCOCC(=O)NCCOCCOCC(=O)O)cn2)c1` [Binder 41]: the “NRT [min]” value is on record as 14.98 min. On the same count and under the same terms, to `O=C(O)CCCCCCCCCCCCCCOc1ccc(S(=O)(=O)Nc2ncc(C(=O)NCCOCCOCC(=O)NCCOCCOCC(=O)O)cn2)cc1` [Binder 5] belongs 14.32 min; to `O=C(O)CCCCCCCCCCCCCCCOc1ccc(S(=O)(=O)Nc2ccc(C(=O)NCCOCCOCC(=O)NCCOCCOCC(=O)O)cn2)cc1Cl` [Binder 51], 13.59 min. Still for that read-out and setting: for `O=C(O)CCCCCCCCCc1ccc(Oc2ccc(S(=O)(=O)Nc3ncc(C(=O)NCCOCCOCC(=O)NCCOCCOCC(=O)O)cn3)cc2)cc1F` [Binder 52] the value was 14.56 min; for `O=C(O)CCCCCCCCCCCCCc1ccc(OCc2ccc(S(=O)(=O)Nc3ncc(C(=O)NCCOCCOCC(=O)NCCOCCOCC(=O)O)cn3)cc2)cc1` [Binder 64], 14.78 min. Same read-out and setting: to `O=C(O)CCCCCCCc1ccc(CCOc2ccc(S(=O)(=O)Nc3ccc(C(=O)NCCOCCOCC(=O)NCCOCCOCC(=O)O)cn3)cc2)cc1` [Binder 43] belongs 11.36 min; to `O=C(O)CCCCCCCc1ccc(CCOc2ccc(S(=O)(=O)Nc3ccc(C(=O)NCCOCCOCC(=O)NCCOCCOCC(=O)O)cn3)cc2)cc1` [Binder 46], 14.48 min; to `O=C(O)CCCCCCCCCc1ccc(S(=O)(=O)Nc2ccc(C(=O)NCCOCCOCC(=O)NCCOCCOCC(=O)O)cn2)cc1` [Binder 67], 10.99 min. For the compound `O=C(O)CCCCCCCCCCCCCCOc1ccc(S(=O)(=O)Nc2ncc(C(=O)CCCCCCC(=O)NCCOCCOCC(=O)NCCOCCOCC(=O)O)cn2)cc1` [Binder 6], the “NRT [min]” value is reported as 14.31 min. Regarding `O=C(O)CCCCCCCc1cc(Oc2ccc(S(=O)(=O)Nc3ncc(C(=O)NCCOCCOCC(=O)NCCOCCOCC(=O)O)cn3)cc2)ccc1F` [Binder 63], the “NRT [min]” value was 13.42 min. On the same count and under the same terms, to `O=C(O)CCCCCCCCCCCCCCCOc1cc(Cl)c(S(=O)(=O)Nc2ncc(C(=O)NCCOCCOCC(=O)NCCOCCOCC(=O)O)cn2)cc1Cl` [Binder 72] belongs 13.96 min; to `O=C(O)CCCCCCCCCCCCCc1cccc(S(=O)(=O)Nc2ccc(C(=O)NCCOCCOCC(=O)NCCOCCOCC(=O)O)cn2)c1` [Binder 21], 16.26 min; to `O=C(O)CCCCCCCCCCCCCCOc1ccc(S(=O)(=O)Nc2ccc(C(=O)NCCOCCOCC(=O)NCCOCCOCC(=O)O)cn2)cc1` [Binder 9], 14.01 min. In the case of `O=C(O)CCCCCCCCCCCCCCCCCOc1ccc(S(=O)(=O)Nc2ncc(C(=O)NCCOCCOCC(=O)NCCOCCOCC(=O)O)cn2)cc1` [Binder 69], the “NRT [min]” value was found to be 14.24 min. The same measure, in the same setting: for `O=C(O)CCCCCCCCCCCc1ccc(Oc2ccc(S(=O)(=O)Nc3ccc(C(=O)NCCOCCOCC(=O)NCCOCCOCC(=O)O)cn3)cc2)cc1` [Binder 27] the value was 15.01 min. Still for that read-out and setting: for `O=C(O)CCCCCCCCCc1ccc(OCc2ccc(S(=O)(=O)Nc3ncc(C(=O)NCCOCCOCC(=O)NCCOCCOCC(=O)O)cn3)cc2)cc1` [Binder 1] the value was 16.76 min. Take `O=C(O)CCCCCCCCCCCCCCCOc1ccc(S(=O)(=O)Nc2ncc(C(=O)NCCOCCOCC(=O)NCCOCCOCC(=O)O)cn2)cc1Cl` [Binder 50]: the “NRT [min]” value came to 13.74 min. Same read-out and setting: to `O=C(O)CCCCCCCCCCCCCCCc1ccc(S(=O)(=O)Nc2ccc(C(=O)NCCOCCOCC(=O)NCCOCCOCC(=O)O)cn2)cc1` [Binder 59] belongs 15.47 min; to `O=C(O)CCCCCCCCCCCCCc1ccc(Oc2ccc(S(=O)(=O)Nc3ccc(C(=O)NCCOCCOCC(=O)NCCOCCOCC(=O)O)cn3)cc2)cc1` [Binder 42], 14.35 min; to `O=C(O)CCCCCCCCCCCCCCCOc1ccc(S(=O)(=O)Nc2ncc(C(=O)NCCOCCOCC(=O)NCCOCCOCC(=O)O)c(C(F)(F)F)n2)cc1` [Binder 45], 13.8 min. Still for that read-out and setting: for `O=C(O)CCCCCCCCCCCCCCCCCCCOc1ccc(S(=O)(=O)Nc2ccc(C(=O)NCCOCCOCC(=O)NCCOCCOCC(=O)O)cn2)cc1` [Binder 71] the value was 14.42 min. With `O=C(O)CCCCCCCCCCCCCCCc1ccc(S(=O)(=O)Nc2ncc(C(=O)NCCOCCOCC(=O)NCCOCCOCC(=O)O)cn2)cc1` [Binder 54], the “NRT [min]” value was 15.19 min.

A further assay has as its target insulin receptor isoform B (IR-B) (Homo sapiens, UniProt P06213). Nature of the assay: Insulin receptor autophosphorylation assay (In-Cell Western, CHO cells, Example 8B). The class given is cell-based. Details: expressed in transfected cells; host or cells: CHO cells. The following applies: relative to human insulin.
On to `O=C(O)CCCCCCCCCCCCCc1cccc(S(=O)(=O)Nc2ncc(C(=O)NCCOCCOCC(=O)NCCOCCOCC(=O)O)cn2)c1` [Binder 29], for which the autophosphorylation activity was found to be 0.01.

In the case of `O=C(O)CCCCCCCCCCCCCc1cc(Oc2ccc(S(=O)(=O)Nc3ncc(C(=O)NCCOCCOCC(=O)NCCOCCOCC(=O)O)cn3)cc2)ccc1F` [Binder 8], the autophosphorylation activity came out at 0.17. Still for that read-out and setting: for `O=C(O)CCCCCCCCCCCCCCOc1ccc(S(=O)(=O)Nc2ncc(C(=O)CCCCCCC(=O)NCCOCCOCC(=O)NCCOCCOCC(=O)O)cn2)cc1` [Binder 6] the value was 0.32; for `O=C(O)CCCCCCCCCCCc1ccc(Oc2ccc(S(=O)(=O)Nc3ccc(C(=O)NCCOCCOCC(=O)NCCOCCOCC(=O)O)cn3)cc2)cc1` [Binder 27], 0.11.
